Assay results as given in US20030186948A1, “O-linked N-acetylglucosamine pathway in the pathogenesis of neurodegeneration and diabetes” (priority 2000, published 2003).
Where a SMILES comes first, the peptide text is derived from it. [ ]: non-standard residue; d: D form. The star is where a group is joined. Nle = CCCC[C@H](N)C(=O)O; Cbz = O=C(OCc1ccccc1)*

How the values were obtained:
[1] = system: TGFα promoter β-gal reporter in pancreatic β-cells; assay: TGFα-βgal reporter activity in islets after streptozotocin injection; type: in vivo, mouse; conditions: TGFα-βgal reporter mice, dose that causes β-cell apoptosis
Experimental: The TGFα promoter was placed in front of the β-galactosidase reporter gene and developed two lines of transgenic mice. The line with the best reporter activity was used in all subsequent experiments. Tissue expression of the reporter was detected as follows: tissues were quickly excised, cut into pieces, and fixed in 4% paraformaldehyde (made in PBS, pH 7.5) for 30 min at 4° C. Tissue sections were rinsed three times 10 min each in ice-cold PBS, immersed in freshly prepared staining solution [10 ml solution of PBS (pH 7.4) containing 2 mM MgCl2, 0.01% sodium deoxycholate, 0.02% NP40, 0.1% X-gal dissolved in dimethylformamide, 82.5 mg potassium ferricyanide, and 94.5 mg potassium ferrocyanide], and incubated overnight at 37° C. The reaction was stopped by rinsing the organs in PBS. Sampleswere stored in 70% ethanol at 4° C. […] For example, β-gal activity was detected in the pituitary and in some neurons, sites where native TGFα had been detected before. […] Of particular interest in this regard was the absence of staining in the exocrine and endocrine pancreas.
Because p53 accumulates in the islet in response to STZ, and TGFα transcription is driven by p53, it is reasonable to examine the TGFα reporter mice for TGFα promoter activation in the islets. Mice were injected with streptozotocin at the dose that cause β-cell apoptosis. […]

[2] = molecular target: T1, brain proteasome LLVY chymotryptic activity (Rattus norvegicus, UniProt P28075); assay: suc-LLVY-AMC cleavage in brain extract of streptozotocin-injected animals; type: in vivo
T1 construct: Brain extract was prepared from animals injected with or without streptozotocin; from tissue; host or cells: brain extract
T1 sequence (P28075 60-263): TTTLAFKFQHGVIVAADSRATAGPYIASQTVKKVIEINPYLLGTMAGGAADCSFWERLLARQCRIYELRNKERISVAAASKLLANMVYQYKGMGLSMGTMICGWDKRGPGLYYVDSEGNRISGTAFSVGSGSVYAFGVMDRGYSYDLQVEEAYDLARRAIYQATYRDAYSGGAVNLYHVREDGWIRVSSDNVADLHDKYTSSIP
Experimental: To determine whether STZ-injected animals display a n alteration in proteasomal function, the cleavage of the peptide LLVY was examined following streptozotocin treatment. Brain extract was prepared from animals injected with or without streptozotocin, and suc-LLVY-AMC was added to the extract.

hippocampal neurons = assay: Intracerebroventricular streptozotocin in TGFα-βgal mice: p53 staining and reporter function in brain; type: in vivo, mouse
Experimental: A number of research groups have developed techniques of injecting streptozotocin into the cerebral ventricles (Lannert & Hoyer, 1998; Weinstock et al., 2001; Sharma & Gupta, 2002). To determine if treatment with streptozotocin causes p53 accumulation in the brain, freshly prepared streptozotocin can be injected stereotactically into the cerebral ventricles, and the brain tissues can then be stained for the presence of p53. When the control TGFα-βgal mice were injected with vehicle alone, no p53 was detected 16 hours post injection. […] STZ was also injected into TGFα-βgal mice with a homozygous knock-out of p53.
The brains slices from similar mice receiving icv injections 36 hours prior to sacrifice were examined for TGFα-βgal reporter function.

pancreatic islets = assay: TUNEL assay and p53 staining of pancreatic slices from STZ-treated rats; type: in vivo, rat
Experimental: The effect of streptozotocin on p53 accumulation in the islets was determined using immunohistochemistical analysis of pancreatic slices from rats treated for various times with STZ. […] This assay has been described thoroughly (Liu et al., 2000). The TUNEL positivity peaks at about 22-24 hours after the administration of STZ. When the tissue was stained with p53 antibodies, it was noted that p53 accumulation preceded the apoptosis. […] This corresponds with the observation the O-GlcNAc transferase is much more highly expressed in the endocrine pancreas. STZ also is toxic to the somatotropes in the pituitary where O-GlcNAc transferase is highly expressed. Thus, it is predicted there where O-GlcNAc transferase is abundant, STZ-sensitivity should be seen.

[3] = system: p135 O-glycosylation in pancreatic islets; assay: Pancreatic islet p135 O-glycosylation (RL2 immunoprecipitation and Western blot); type: cell-based, rat; conditions: for inhibition of p135 O-glycosylation: comparison with NOC-15, FIG. 12
Experimental: Rat pancreatic islets were isolated, counted into tubes and pre-incubated with 3 mM glucose. Following pre-incubation, islets were stimulated with 3 mM glucose, 5 mM STZ, 5 mM NOC-15, or 5 mM DPTA. NOC-15 ((Z)-1-[N-(3-Ammoniopropyl)-N-(n-propyl)amino]diazen-ium-1,2-diolate, also known as PAPA NONOate) is a structural analog of […] (FIG. 9). At the end of the experiment, O-glycosylated proteins were immunoprecipitated with RL2 antibody, which binds to O-linked N-acetylglucosamine. Immunoprecipitated proteins were run out on a 6.5% SDS-PAGE gel and the proteins were then transferred to a nitrocellulose blot. The blot was then probed with RL2 antibody, which was detected by the ECL method. The blot was exposed to X-ray film and the film was developed and photographed. […] The structure and action of NOC-15 can thus be used as a basis to synthesize drugs that can be used to prevent and/or treat diabetes.

[4] = system: hippocampal neurons (CA1 region); assay: RL2 immunostaining of brain O-GlcNAc after cerebroventricular streptozotocin; type: in vivo, rat; conditions: 6 hours after injection
Experimental: To determine if streptozotocin causes hippocampal neuron O-GlcNAc accumulation, the drug was delivered stereotactically to the cerebroventricles of a rat brain. The brain tissues were then stained for O-GlcNAc content using the O-GlcNAc-specific monoclonal antibody, RL2. Staining of rat tissue by this mouse antibody is easier because detection is not hampered by endogenous mouse IgG. Staining is blocked by preincubation of RL2 with GlcNAc, but not GalNAc or glucosamine (needs acetylation) or other sugars. The bound RL2 can be detected by fluorescent-tagged antimouse IgG antibody. […] At 6 hours post-injection, the animals were sacrificed and brain O-GlcNAc content was detected with RL2 immunostaining as previously described (Liu et al., 2000).

[5] = system: Sp1 proteasome degradation; assay: Sp1 depletion in cells under low glucose and cAMP accumulation; type: cell-based
Source text: This study therefore correlated the stability of Sp1 against proteasome degradation with the level of Sp1 modification by O-GleNAc.
The depletion of O-GlcNAc on Sp1 and other proteins appeared to have resulted both from the glucose starvation and from the cAMP.

[6] = system: proteasome processing of Sp1 in nuclear extract; assay: Sp1 degradation by proteasome in nuclear extract; type: biochemical; conditions: activated nuclear extract
[7] = molecular target: T2, Purified recombinant O-GlcNAc transferase (Homo sapiens, UniProt O15294); assay: Inhibition of purified recombinant O-GlcNAc transferase; type: biochemical
T2 sequence (O15294 1-1046): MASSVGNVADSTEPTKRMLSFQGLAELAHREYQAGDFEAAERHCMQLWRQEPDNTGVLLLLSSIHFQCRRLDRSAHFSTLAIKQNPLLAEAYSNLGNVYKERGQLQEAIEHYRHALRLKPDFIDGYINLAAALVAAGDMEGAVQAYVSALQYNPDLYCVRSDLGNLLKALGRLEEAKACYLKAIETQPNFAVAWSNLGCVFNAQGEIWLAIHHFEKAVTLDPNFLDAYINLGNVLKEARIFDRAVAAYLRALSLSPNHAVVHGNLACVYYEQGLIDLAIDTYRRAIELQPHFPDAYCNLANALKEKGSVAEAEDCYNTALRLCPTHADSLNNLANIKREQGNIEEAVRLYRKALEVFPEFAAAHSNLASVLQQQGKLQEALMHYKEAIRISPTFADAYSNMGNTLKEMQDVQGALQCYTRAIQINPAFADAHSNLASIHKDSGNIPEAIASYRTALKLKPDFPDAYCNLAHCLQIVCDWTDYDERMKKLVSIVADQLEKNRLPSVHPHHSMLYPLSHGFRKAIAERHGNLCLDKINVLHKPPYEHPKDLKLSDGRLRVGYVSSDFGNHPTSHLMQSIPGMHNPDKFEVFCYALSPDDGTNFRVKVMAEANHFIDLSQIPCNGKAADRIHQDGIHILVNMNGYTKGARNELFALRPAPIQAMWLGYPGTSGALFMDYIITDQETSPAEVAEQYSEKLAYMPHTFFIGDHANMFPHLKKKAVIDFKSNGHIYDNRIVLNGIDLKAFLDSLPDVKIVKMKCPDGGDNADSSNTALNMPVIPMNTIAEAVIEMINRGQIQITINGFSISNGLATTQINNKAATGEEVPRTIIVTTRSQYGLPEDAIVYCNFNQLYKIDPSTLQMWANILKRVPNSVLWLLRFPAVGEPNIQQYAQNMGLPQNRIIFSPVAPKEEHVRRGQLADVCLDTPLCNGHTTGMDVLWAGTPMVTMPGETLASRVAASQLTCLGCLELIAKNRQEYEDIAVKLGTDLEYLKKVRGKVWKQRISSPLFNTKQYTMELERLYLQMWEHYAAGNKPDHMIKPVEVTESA
Experimental: (§1) Another chemical means of inhibiting O-GlcNAc transferase has been discovered. Another long known diabetogenic drug, alloxan (ALX) (FIG. 8 above), is a uracil analog. Injections of this drug into laboratory rats also causes a relatively specific death of the pancreatic β-cells. […] Purified recombinant O-GlcNAc transferase is inhibited half-maximally by 0.1 mM alloxan, compatible with the dose of this drug that causes diabetes. These studies indicate that an analog of UDP-GlcNAc that mimics the uracil moiety like alloxan, might be an index compound for the discovery of other UDP-GlcNAc like molecules that inhibit the O-GlcNAc transferase.

[8] = system: O-GlcNAc modification of p135 in isolated β-cells; assay: O-GlcNAc modification of p135 in isolated β-cells treated with alloxan; type: cell-based
Experimental: as §1

[9] = molecular target: T3, proteasome chymotryptic activity in NRK nuclear extracts (Rattus norvegicus, UniProt P28075); assay: suc-LLVY-AMC proteasome peptidase assay in NRK nuclear extracts; type: biochemical; conditions: cells treated before extract preparation; data not shown
T3 construct: endogenous in cells; host or cells: NRK cells, nuclear extract
T3 sequence (P28075 60-263): T1 sequence (P28075 60-263)
Experimental: The chymotryptic activity of the proteasome itself can be measured using short synthetic peptides. The peptide, N-succinyl-Leu-Leu-Val-Tyr-7-amido-4-methylcoumarin (suc-LLVY-AMC) (Sigma), is coupled to a fluorescent indicator, and the cleavage can be monitored and quantitated by a fluorometer. […] The reaction is carried out in a 96 well plate.
If the chymotryptic cleavage has occurred, the fluorescence can b e excited with UV light at 365 nm and detected by a CCDdigital camera coupled to a computer. Because the LLVY peptide can be cleaved by any enzyme having chymotryptic activity, cleavage is not specifically proteasome-dependent. However, if cleavage is blocked by a wide spectrum proteasome inhibitors, then it is reasonable to deduce that the detected fluorescence is proteasome-dependent.
Proteasome peptidase activity in activated NRK nuclear extracts was examined with this assay. The activity could be inhibited by preincubating the extract with known proteasome inhibitors indicating the fluorescent signal derives from authentic proteasome activity (FIG. 2). […] When the extract was exposed briefly to GST-OGT plus UDP-GlcNAc and then the O-GlcNAc transferase was removed, the chymotryptic activity was eliminated. GST had no effect on the proteasome activity. […] The chymotryptic activity of the proteasome was stimulated by this treatment.

CN(N=O)C(=O)N[C@H]1C(O)O[C@H](CO)[C@@H](O)[C@@H]1O (mixture of isomers) [streptozotocin]
β-gal reporter activity in pancreas [1]: appeared in the β-cells but not exocrine pancreas
LLVY chymotryptic activity in the brains of treated animals ([2]; brain extract, preliminary results): marked inhibition
p53 by immunohistochemistry in neurons of the hippocampus (hippocampal neurons; 16 hours post icv injection): readily detectable
TGFα-βgal reporter function in hippocampal neurons (hippocampal neurons; icv injection 36 hours prior to sacrifice, wildtype TGFα-βgal mice): show reporter function
p53 accumulation in islets (pancreatic islets; at 16 hours): well established
time of peak TUNEL positivity after administration (pancreatic islets; rat islets): 22 to 24 h
apoptosis in islets by TUNEL assay (pancreatic islets; rats treated with STZ): causes apoptosis
effect on p135 O-glycosylation ([3]; rat islets, 5 mM): stimulated
O-GlcNAc signal in hippocampal neurons (RL2) [4]: marked increase

NCCCN(CCCN)/[N+]([O-])=N/O [DPTA]
inhibition of p135 O-glycosylation [3]: do not inhibit

CCCC[C@@H](C=O)NC(=O)[C@H](CC(C)C)NC(=O)[C@H](CC(C)C)NC(C)=O [LLnL] (Ac-Leu-Leu-[Nle]-aldehyde)
loss of Sp1 under low glucose and cAMP accumulation [5]: blocked

CC(C)C[C@@H](C=O)NC(=O)[C@H](CC(C)C)NC(=O)[C@H](CC(C)C)NC(=O)OCc1ccccc1 [MG132] (Cbz-Leu-Leu-Leu-aldehyde)
loss of Sp1 under low glucose and cAMP accumulation [5]: blocked

CCCN(CCCN)/[N+]([O-])=N/O [NOC-15, (Z)-1-[N-(3-Ammoniopropyl)-N-(n-propyl)amino]diazen-ium-1,2-diolate]
inhibition of STZ-induced p135 O-glycosylation ([3]; rat islets, 5 mM streptozotocin and 5 mM NOC-15): almost completely inhibiting

NCCCNCCCCN(CCCN)/[N+]([O-])=N/O [Spermine NONOate]
inhibition of p135 O-glycosylation [3]: do not inhibit

CC(=O)N[C@H]1[C@@H](OP(=O)(O)OP(=O)(O)OC[C@H]2O[C@@H](n3ccc(=O)[nH]c3=O)[C@H](O)[C@@H]2O)O[C@H](CO)[C@H](O)[C@@H]1O [UDP-GalNAc]
effect on the inhibitory effect of catalytically active O-GlcNAc transferase on Sp1 processing [6]: partially blocked

O=C1NC(=O)C(=O)C(=O)N1 [alloxan]
IC50 [7]: 100 µM
increase in the O-GlcNAc modification of p135 in response to glucose or glucosamine [8]: fail to display an increase

N[C@H]1C(O)O[C@H](CO)[C@@H](O)[C@@H]1O (stereo partly shown) [glucosamine]
Sp1 degradation after glucose starvation and forskolin ([5]; cells provided glucosamine): degradation decreased
proteasome chymotryptic activity of extract from treated cells [9]: does not display this activity

CC(=O)N[C@@H](CSC(=O)[C@]1([C@@H](O)C(C)C)NC(=O)[C@H](C)[C@@H]1O)C(=O)O [lactacystin]
loss of Sp1 under low glucose and cAMP accumulation [5]: blocked
proteasome chymotryptic activity of extract from treated cells [9]: does not display this activity

CC(C)[C@H](O)[C@@]12NC(=O)[C@H](C)[C@@H]1OC2=O [β-lactone]
suc-LLVY-AMC fluorescence in brain extract ([2]; inhibitor added to extract): inhibited
